According to patent US8133847B2, “Pyrido[2,3-B]pyrazine derivatives useful as herbicidal compounds” (Syngenta Limited, priority 2006, dated 2012):

Legend:
Type in all cases: in vivo
[1] = system: Amaranthus retroflexus (AMARE); experiment: Example B2 herbicidal action, post-emergence, pots in glasshouse; conditions: Application post-emergence, evaluated after 13 days (100=total damage to plant; 0=no damage to plant)
Protocol: (§1) Seeds of a variety of test species were sown in standard soil in pots. After 8 days cultivation (post-emergence) under controlled conditions in a glasshouse (at 24/16° C., day/night; 14 hours light; 65% humidity), the plants were sprayed with an aqueous spray solution derived from the formulation of the technical active ingredient in acetone/water (50:50) solution containing 0.5% Tween 20 (polyoxyethylene sorbitan monolaurate, CAS RN 9005-64-5). The test plants were then grown in a glasshouse under controlled conditions in a glasshouse (at 24/16° C., day/night; 14 hours light; 65% humidity) and watered twice daily. After 13 days, the test was evaluated (100=total damage to plant; 0=no damage to plant).

[2] = system: Echinochloa crusgalli (ECHCG); experiment: as above; conditions: Application post-emergence, evaluated after 13 days (100=total damage to plant; 0=no damage to plant)
Protocol: as §1

[3] = system: Ipomea hederaceae (IPOHE); experiment: as above; conditions: Application post-emergence, evaluated after 13 days (100=total damage to plant; 0=no damage to plant)
Protocol: as §1

[4] = system: Setaria faberi (SETFA); experiment: as above; conditions: Application post-emergence, evaluated after 13 days (100=total damage to plant; 0=no damage to plant)
Protocol: as §1

[5] = system: Solanum nigrum (SOLNI); experiment: as above; conditions: Application post-emergence, evaluated after 13 days
Protocol: as §1

[6] = system: Amaranthus retroflexus (AMARE); experiment: Example B1 herbicidal action, post-emergence, 96-cell seed trays, climatic chamber; conditions: Application post-emergence, 1000 mg/l spray equivalent to 1000 g/ha, evaluated after 9 days
Method in brief: (§2)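 Plants at 8–9 days post-sowing (23/17 °C, 13 h light, 50–60% humidity) sprayed post-emergence with 1000 mg/l active ingredient in 10% DMSO, equivalent to 1000 g/ha. Grown on at 24/19 °C, watered twice daily; damage scored after 9 days (0 = none, 100 = total).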

[7] = system: Solanum nigrum (SOLNI); experiment: as above; conditions: Application post-emergence, 1000 mg/l spray equivalent to 1000 g/ha, evaluated after 9 days (100=total damage to plant, 0=no damage to plant)
Method in brief: as §2

[8] = system: Stellaria media (STEME); experiment: as above; conditions: Application post-emergence, 1000 mg/l spray equivalent to 1000 g/ha, evaluated after 9 days (100=total damage to plant, 0=no damage to plant)
Method in brief: as §2

[9] = system: Nasturtium officinale (NAAOF); experiment: as above; parameters: scale not given here; conditions: Application post-emergence, 1000 mg/l spray equivalent to 1000 g/ha, evaluated after 9 days (100=total damage to plant, 0=no damage to plant)
Method in brief: as §2

Structure (SMILES)	damage to plant, Amaranthus retroflexus (AMARE) [1]	damage to plant, Echinochloa crusgalli (ECHCG) [2]	damage to plant, Ipomea hederaceae (IPOHE) [3]	damage to plant, Setaria faberi (SETFA) [4]	damage to plant, Solanum nigrum (SOLNI) [5]	damage to plant, Amaranthus retroflexus (AMARE) [6]	damage to plant, Solanum nigrum (SOLNI) [7]	damage to plant, Stellaria media (STEME) [8]	damage to plant, Nasturtium officinale (NAAOF) [9]
O=c1[nH]c2nccnc2c(O)c1-c1ccccc1Br [Compound A24]	10	4	6	6	9	–	–	–	–
O=c1[nH]c2nccnc2c(O)c1-c1c(Cl)cc(OC(F)(F)F)cc1Cl [Compound A36]	7	10	0	8	8	–	–	–	–
Cc1ccc(C)c(-c2c(O)c3nccnc3[nH]c2=O)c1 [Compound A37]	4	7	1	7	6	–	–	–	–
O=c1[nH]c2nccnc2c(O)c1-c1cc(F)ccc1Cl [Compound A38]	10	8	0	9	9	–	–	–	–
O=c1[nH]c2nccnc2c(O)c1-c1cc(F)c(Cl)cc1Cl [Compound A39]	8	8	0	7	6	–	–	–	–
O=c1[nH]c2nccnc2c(O)c1-c1c(F)ccc(Br)c1Cl [Compound A40]	9	5	0	9	8	–	–	–	–
CC(C)(C)C(=O)Oc1c(-c2c(Cl)cc(OC(F)(F)F)cc2Cl)c(=O)[nH]c2nccnc12 [Compound B42]	0	1	0	8	5	–	–	–	–
CC(C)(C)C(=O)Oc1c(-c2ccc(C(F)(F)F)cc2[N+](=O)[O-])c(=O)[nH]c2nccnc12 [Compound B44]	7	3	–	0	3	–	–	–	–
CC(C)C(=O)Oc1c(-c2cc(F)ccc2Cl)c(=O)[nH]c2nccnc12 [Compound B45]	4	8	0	8	9	–	–	–	–
CC(C)(C)C(=O)Oc1c(-c2cc(F)ccc2Cl)c(=O)[nH]c2nccnc12 [Compound B46]	10	4	9	6	10	–	–	–	–
CC(C)C(=O)Oc1c(-c2cc(F)c(Cl)cc2Cl)c(=O)[nH]c2nccnc12 [Compound B47]	2	3	1	4	3	–	–	–	–
CC(C)(C)C(=O)Oc1c(-c2c(F)ccc(Br)c2Cl)c(=O)[nH]c2nccnc12 [Compound B49]	10	3	8	7	9	–	–	–	–
CC(C)C(=O)Oc1c(-c2c(F)ccc(Br)c2Cl)c(=O)[nH]c2nccnc12 [Compound B50]	10	8	8	8	9	–	–	–	–
CC(C)(C)C(=O)Oc1c(-c2ccccc2Br)c(=O)[nH]c2nccnc12 [Compound B51]	3	3	0	6	7	–	–	–	–
CC(C)(C)C(=O)Oc1c(-c2ccccc2OC(F)F)c(=O)[nH]c2nccnc12 [Compound B59]	0	0	3	4	2	–	–	–	–
CCn1c(=O)c(-c2c(Cl)cc(C(F)(F)F)cc2Cl)c(OC(=O)C(C)(C)C)c2nccnc21 [Compound C129]	10	4	9	6	10	–	–	–	–
CC(C)(C)C(=O)Oc1c(-c2c(F)ccc(F)c2Cl)c(=O)n(CC2CCC2)c2nccnc12 [Compound C131]	0	0	0	0	2	–	–	–	–
Cc1ccc(C)c(-c2c(OC(=O)C(C)C)c3nccnc3n(C)c2=O)c1 [Compound C133]	9	6	3	4	9	–	–	–	–
Cn1c(=O)c(-c2ccccc2I)c(OC(=O)C(C)(C)C)c2nccnc21 [Compound C136]	9	9	–	8	10	–	–	–	–
CC#CCOC(=O)Oc1c(-c2c(Cl)cccc2Cl)c(=O)n(C)c2nccnc12 [Compound C178]	–	–	–	–	–	4	2	7	6
CCn1c(=O)c(-c2ccccc2Cl)c(OC(C)=O)c2nccnc21 [Compound C185]	–	–	–	–	–	4	4	10	8
CCn1c(=O)c(-c2c(F)ccc(F)c2Cl)c(O)c2nccnc21 [Compound D2]	–	–	–	–	–	6	8	8	8
Cn1c(=O)c(-c2ccc(Cl)cc2Cl)c(O)c2nccnc21 [Compound D3]	–	–	–	–	–	0	8	8	8
Cn1c(=O)c(-c2c(F)ccc(F)c2Cl)c(O)c2c1ncc[n+]2[O-] [Compound D6, 7-(2-chloro-3,6-difluorophenyl)-8-hydroxy-5-methyl-1-oxy-5H-pyrido[2,3-b]pyrazin-6-one]	–	–	–	–	–	5	3	6	7
